Laboratory results taken from the METLIN SMRT retention time set (Domingo-Almenara et al. 2019).

Assay: gradient 5% acetonitrile 3 min, to 50% in 2 min, to 85% in 15 min, held 3 min, 100 µL/min
Conditions: column: Zorbax Extend-C18 2.1 x 50 mm; eluents: water / acetonitrile, 0.1% formic acid
Summary of the method: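 Data were gathered over 3 months by HPLC coupled to a quadrupole time-of-flight mass spectrometer, operated in positive and negative ionization mode. Mixtures of ~100 pure standards ran on a Zorbax Extend-C18 column (2.1 × 50 mm, 1.8 μm) at 100 μL/min, with water and acetonitrile each containing 0.1% formic acid and dead and dwell volumes of 40 μL and 900 μL. Retention time was read from adduct peaks picked by computer and checked manually.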

| SMILES | RP-LC retention time |
| --- | --- |
| O=C(Cc1csc(SCc2ccncc2)n1)N1CCN(c2ccccc2)CC1 | 582 s |
| COc1ccc(N2CC(c3noc(-c4ccc(C)cc4C)n3)CC2=O)cc1OC (stereo not given) | 1000 s |
| COCCCNC(=O)Cc1c(C)n(C)c2nc(-c3ccccc3)nn2c1=O | 618 s |
| Cn1cc(-c2cc3n(n2)CCC(=O)N3CCCC(=O)NCc2cccnc2)c2ccccc21 | 616 s |
| CCOc1ccc(S(=O)(=O)N2CCCC(C(=O)NCc3ccccc3)C2)cc1 (stereo not given) | 878 s |
| CCS(=O)(=O)NCc1ccc2c(c1)CCN2C(=O)c1ccccc1 | 657 s |
| CC1CCN(S(=O)(=O)c2ccc(-c3nnc(C(=O)N4CCCCC4)o3)cc2)CC1 | 1040 s |
| O=C(C1=CN(c2ccc3c(c2)OCO3)c2ccccc2S1(=O)=O)N1CCCCC1 | 780 s |
| Cn1nc(-c2nc(C3CC3)no2)c2c1CCN(C(=O)c1cccc(C(F)(F)F)c1)C2 | 906 s |
| CCc1cccc(NC(=O)Cn2c(=O)c3cc(C4CC4)nn3c3ncccc32)c1 | 844 s |
| O=C(Cn1c(=O)c(S(=O)(=O)c2ccccc2)cc2ccccc21)NCc1ccccc1Cl | 895 s |
| Cc1cc(NC(=O)NC2CCN(c3ccccc3)C2=O)ccc1Br (stereo not given) | 919 s |
| Cn1ncc2c(N3CCCCC3)nc(C(=O)N3CCN(c4ccc(Cl)cc4)CC3)nc21 | 1020 s |
| CC(C)Oc1ccc(CNC(=O)C2CCN(c3cnc4nccnc4c3)CC2)cc1 | 683 s |
| CC(C)C(=O)Nc1ccc(-n2cnc(C(=O)NCc3cc(F)cc(F)c3)c2)nc1 | 785 s |
| CCn1nnc2cc(-c3noc(CNC(=O)Cc4ccccc4)n3)ccc21 | 767 s |
| CCOc1ccc(CC(=O)N2C[C@@H]3C[C@H](NC(=O)c4cccs4)[C@H]2C3)cc1 | 782 s |
| Cc1ccc(N2CCC(NC(=O)c3cccc(F)c3)C2=O)cc1C (stereo not given) | 891 s |
| Cc1nc(-c2ccc(N3CCN(C(=O)c4ccc(F)c(F)c4)CC3)nc2)sc1C | 976 s |
| CCCn1cnc2cc(CNC(=O)c3ccc(OC)c(OC)c3)ccc21 | 606 s |
| Cc1cc(NC(=O)CSc2nc3ccccc3o2)sn1 | 726 s |
| COc1ccc(OCc2noc(CNC(=O)CCC(=O)c3ccccc3)n2)cc1 | 712 s |
| O=C(NCc1ccc(F)c(Cl)c1)c1csc(C(=O)NC2CCCC2)n1 | 976 s |

| SMILES | RP-LC retention time |
| --- | --- |
| Cc1ccc(CN2CC(Oc3ccc(-c4noc(C5CCOCC5)n4)cc3)C2)o1 | 686 s |
| CCc1cc(C(=O)Nc2ccc(F)cc2C)nc2ccnn12 | 1140 s |
| COc1cc(=O)n2c(c1C(=O)Nc1ccc(Br)cc1F)CCCC2 | 777 s |
| Cc1csc(-c2ccc(CNC(=O)c3ccnn3C)cc2)n1 | 772 s |
| O=C(Cn1nnc2ccccc2c1=O)Nc1nc2ccccc2[nH]1 | 597 s |
| O=C(CCc1conc1-c1ccc(F)cc1)NCc1ccc(F)cc1 | 886 s |
| CCCS(=O)(=O)c1nc2ccc(NS(=O)(=O)c3ccc4c(c3)CCCC4)cc2s1 | 1060 s |
| CCc1cccc(C)c1NC(=O)Cn1c(=O)n(-c2ccccc2)c(=O)c2c1cc(C)n2C | 833 s |
| Cc1ccc(NC(=O)Cn2c(=O)n(-c3ccccc3)c(=O)c3c2cc(C)n3C)c(Cl)c1 | 927 s |
| Cc1ccc(C)c(-n2ncc3c(N4CCN(C)CC4)ncnc32)c1 | 614 s |
| O=c1c(=O)n(-c2cccc(Cl)c2)ccn1Cc1nc(-c2ccccc2)no1 | 875 s |
| CCOC(=O)Cc1[nH]nc2ccc(F)cc12 | 697 s |
| O=C(c1cccc(Cl)c1)N1CCC2(CC1)OCC(C(=O)N1CCCC1)N2C(=O)c1cccc(F)c1 (stereo not given) | 765 s |
| O=C(CCC(=O)OCc1ccc(Br)cc1)Nc1nc(-c2ccccc2)cs1 | 1130 s |
| CCOCCCNS(=O)(=O)c1cccc(-c2nc(-c3ccc(C)cc3)no2)c1 | 1160 s |
| Cc1sc(NC(=O)CSc2nnc3c4ccccc4n(C)c3n2)nc1-c1ccccc1 | 1030 s |
| Cc1sc2ccn(C)c(=O)c2c1C(=O)NCc1ccc(N2CCOCC2)cc1 | 647 s |
| Cc1cc(OCC(=O)N2CCCCC2)nc(-c2ccc(Cl)cc2)n1 | 790 s |
| CCOC(=O)C1=C(CN2CCC(C)CC2)NC(=O)NC1c1cccs1 (stereo not given) | 611 s |
| CC(Oc1ccc(C(C)(C)C)cc1)C(=O)Nc1ccnn1Cc1ccco1 (stereo not given) | 1020 s |
| CCOc1cccc(-c2noc(-c3nn(-c4cccc(OC)c4)ccc3=O)n2)c1 | 968 s |
| Cc1ccc(Nc2c(-c3ccccc3O)nc3ncccn23)c(C)c1 | 744 s |
| CN1c2ccccc2C(=O)NC12CCN(C(=O)NCCc1ccccc1)CC2 | 728 s |

| SMILES | RP-LC retention time |
| --- | --- |
| Cc1ccn2c(Nc3ccccc3C)c(-c3cccc(Br)c3)nc2c1 | 819 s |
| COc1ccc(-n2nc(N3CCCC(C(=O)NCc4cccc(OC)c4)C3)ccc2=O)cc1 (stereo not given) | 763 s |
| COc1ccccc1-c1nc2nccc(-c3cc4ccccc4o3)n2n1 | 1010 s |
| Cc1csc(NC(=O)C2CCCN(c3ncnc4c3nc3n4CCCCC3)C2)n1 (stereo not given) | 756 s |
| O=C(CSc1nnc2sc3ccccc3n12)N1CCOCC1 | 614 s |
| CCn1cc(C(=O)Nc2ccccc2F)c2cccnc21 | 812 s |
| O=C(NCC1CCN(C(=O)Oc2ccccc2)CC1)c1ccsc1 | 739 s |
| O=C(c1c(F)cccc1F)N1CCN=C1N1CCCCC1 | 623 s |
| Cc1c(NC(=O)Nc2c(Cl)cccc2Cl)c(=O)n(-c2ccccc2)n1C | 751 s |
| COc1ccc2c(c1)C1(CCN(C(=O)CCc3ccccc3)C1)C(=O)N2 (stereo not given) | 728 s |
| CNC(=O)c1cc[nH]c1C1CCCN(C(=O)c2ccc(Br)o2)C1 (stereo not given) | 674 s |
| Cc1ccc(C)c(Cn2nc(-c3nc(C(C)(C)C)no3)ccc2=O)c1 | 1170 s |
| Cc1ccc(F)c(NC(=O)Nc2ccc(-c3cccc4[nH]nc(N)c34)cc2)c1 | 845 s |
| O=C(Cc1nnc2c(-c3nc(C4CC4)no3)cccn12)NC1CCCC1 | 661 s |
| Cn1cc2c3c(cccc31)CN(C(=O)c1cccs1)CC2 | 876 s |
| CC(=O)NCc1cn[nH]c1-c1ccc(Cl)cc1 | 625 s |
| Cc1ccc(Cn2c(CN3CCC(C(=O)N4CCOCC4)CC3)cc3ccccc32)cc1 | 717 s |
| Cc1cc(CNC(=O)c2cnccn2)no1 | 577 s |
| CC(C)n1c(SCC(=O)N(C)C)nnc1-c1ccc2c(c1)OCCCO2 | 691 s |
| CCCCn1cc(S(=O)(=O)Nc2ccc(F)cc2)c2cccnc21 | 936 s |
| O=S(=O)(c1cccnc1)N1CC(n2cc(COc3ccc(F)cc3)nn2)C1 | 798 s |
| O=S(=O)(NC1CCCC1)c1ccc(-c2nnc(C3CC3)o2)o1 | 812 s |
| CCOc1ccc(C(=O)NCc2c(C)noc2C)cc1OCC | 757 s |

| SMILES | RP-LC retention time |
| --- | --- |
| Cc1ccccc1C(=O)N1CCC2(C1)C(=O)Nc1ccccc12 (stereo not given) | 703 s |
| CC(C)CN1CCn2cc(S(=O)(=O)Nc3ccc(F)c(F)c3)cc2C1=O | 842 s |
| COc1ccc(N2CCN(C(=O)C3CCN(CCc4c[nH]c5ncccc45)CC3)CC2)cc1 | 567 s |
| CCN(C(=O)c1ccccc1)c1nc(-c2ccccc2)cs1 | 1230 s |
| Cc1cnc(-c2ccncc2)n1CCNS(=O)(=O)c1ccc2c(c1)CCC2 | 633 s |
| O=C(C1CCN(c2ncnc3c2oc2ccccc23)CC1)N1CCN(C2CCCCC2)CC1 | 590 s |
| COc1ccc(C2CC(=O)Nc3c(C(=O)O)cn(-c4cccc(F)c4)c32)cc1OC (stereo not given) | 728 s |
| COc1ccc(-c2nnc(N3CCC(C(=O)NC(C)c4ccc(OC)cc4)CC3)o2)cc1 (stereo not given) | 815 s |
| O=C(Cn1nc(N2CCCCCC2)c2ccccc2c1=O)Nc1ccccc1 | 1050 s |
| CCCCS(=O)(=O)c1cc2c(cc1NC(=O)Cc1ccc(F)cc1)n(C)c(=O)n2C | 847 s |
| COc1ccc(-c2ncc3c(=O)n(Cc4ccc(Br)cc4F)c(=O)n(C)c3n2)cc1 | 1290 s |
| Cc1ccc(-c2cc3c4nn(CC(=O)NCc5ccco5)c(=O)n4ccn3n2)cc1C | 874 s |
| CCC(=O)N1CCc2cc(N3CC(C(=O)NCc4cccs4)CC3=O)ccc21 (stereo not given) | 695 s |
| CCC(=O)NCc1cnn(-c2ccc(C(=O)Nc3ccc4c(c3)OCCO4)cc2)c1 | 702 s |
| Cc1cccc(-c2nc(N3CC4(C)CC3CC(C)(C)C4)c3ccccc3n2)c1 (stereo not given) | 1060 s |
| O=C(COc1ccccc1F)N1CCN(Cc2nc(C3CC3)cs2)CC1 | 640 s |
| O=C1CC(C(=O)N2CCN(Cc3ccccc3)CC2)CN1CCc1c[nH]c2ccc(F)cc12 (stereo not given) | 634 s |
| CCOC(=O)c1[nH]c(C)c(S(=O)(=O)N2CCN(c3ccccn3)CC2)c1C | 640 s |
| COCCn1nc2n(c1=O)CCC1(CC2)CCN(C(=O)C2CCCO2)CC1 (stereo not given) | 600 s |
| COCCN1C(=O)CCC2(CNC(=O)c3sccc3C)CCCC=C12 (stereo not given) | 804 s |
| Cc1ccc(NS(=O)(=O)c2cc3c(s2)CCN(C(=O)C2CC2)C3)cc1 | 849 s |
